Reference: BindingDB's records for PubMed 34838650 (University of Messina, 2022)

Experiments:
[1] = target: Proteasome subunit beta type-10 (PSMB10); assay: Inhibition of 20S immuno proteosome beta2i subunit (unknown origin) assessed as substrate hydrolysis using Boc-Leu-Arg-Arg-AMC as fluorogenic substrate at 100 uM
[2] = Inhibition of 20S constitutive proteosome beta2c subunit (unknown origin) assessed as substrate hydrolysis using Boc-Leu-Arg-Arg-AMC as fluorogenic substrate at 100 uM
[3] = target: Proteasome subunit beta type-9 (PSMB9); assay: Inhibition of 20S immuno proteosome beta1i subunit (unknown origin) assessed as substrate hydrolysis using Z-Leu-Leu-Glu-AMC as fluorogenic substrate at 100 uM
[4] = Inhibition of 20S constitutive proteosome beta1c subunit (unknown origin) assessed as substrate hydrolysis using Z-Leu-Leu-Glu-AMC as fluorogenic substrate at 100 uM
[5] = Inhibition of chymotrypsin-like activity of human 20s immuno proteasome beta5i subunit assessed as substrate hydrolysis using Suc-Leu-Leu-Val-Tyr-AMC as flurogenic substrate at 0.004 mg/ml measured for 10 mins by fluorescence assay
[6] = target: Proteasome subunit beta type-9 (PSMB9); assay: Inhibition of human spleen 20S immuno proteosome beta1i subunit assessed as substrate hydrolysis using Ac-Pro-Ala-Leu-AMC as fluorogenic substrate by fluorescence based assay

Row | SMILES | Ki [1] [µM] | Ki [2] [µM] | Ki [3] [µM] | Ki [4] [µM] | Ki [5] [µM] | Ki [6] [µM]
1 | CCCCNC(=O)/C=C/Cn1ccc2cc(OC)c(OC)cc2c1=O | 42 | 10 |  |  |  | 
2 | COc1cc2ccn(C/C=C/C(=O)NCCc3ccccc3)c(=O)c2cc1OC | 4 | 10 | 14 |  |  | 
3 | COc1cc2ccn(C/C=C/C(=O)NCc3ccccc3)c(=O)c2cc1OC |  | 9 | 3 | 23 |  | 
4 | COc1cc2ccn(C/C=C/C(=O)Nc3ccccc3)c(=O)c2cc1OC | 12 | 15 | 10 | 17 |  | 
5 | COc1cc2ccn(C/C=C/C(=O)NCCCc3ccccc3)c(=O)c2cc1OC | 3 | 5 | 50 |  |  | 
6 | COc1cc2ccn(C/C=C/C(=O)NC3CCCCC3)c(=O)c2cc1OC | 42 |  |  |  |  | 
7 | CC(C)CCNC(=O)Cn1ccc2ccc(Br)cc2c1=O |  |  |  |  | 4.39 | 
8 | O=C(CCn1ccccc1=O)NCc1ccccc1 |  |  |  |  |  | 0.021
9 | COc1cc2ccn(C/C=C/C(=O)NCCC(C)C)c(=O)c2cc1OC | 20 | 4 | 0.27 |  |  | 
